{"source": "paper PMC4710522", "about": "“A Novel Triazolopyridine-Based Spleen Tyrosine Kinase Inhibitor That Arrests Joint Inflammation” (PLoS ONE, 2016)", "key": {"[1]": {"tested_on": "Tel-Syk expressing BaF3 cells", "assay": "Tel-Syk BaF3 viability assay (growth factor-independent growth)", "format": "cell-based, murine", "conditions": "Tel-Syk BaF3, absence of IL-3", "description": "HEK293 T-REx™ (Life Technologies, Grand Island, NY) stably transfected with human TEL-Syk (cloned as described prior section DNA constructs) were plated on black poly-D-lysine coated 96-well plates (BD Biosciences, San Diego, CA) in culture media containing tetracycline-free fetal bovine serum (Clontech, MountainView, CA) for 16 hours in a tissue culture incubator. Tel-Syk expression was induced for 6 hours in fresh growth media containing 1 μg/ml tetracycline (Sigma Chemicals, St. Louis, MO). Plates were preincubated with CC-509 for 90 minutes, fixed immediately with 4% formaldehyde in 1X PBS for 20 min at room temperature, and washed/permeabilized 5-times with PBS containing 0.1% Triton X-100. Plates were blocked with Odyssey Blocking Buffer for 90 minutes at room temperature and incubated overnight at 4°C on a rotating platform with rabbit phospho-Syk (1:1000) and mouse V5 (1:2500) primary antibodies diluted in Odyssey Blocking Buffer. […] Viability of BaF/3 cells expressing Tel-Syk grown in the absence of murine IL-3 was measured using Cell-Titer Glo reagent (Promega, Madison, WI), as described by supplier."}, "[2]": {"tested_on": "rat passive cutaneous anaphylaxis model", "assay": "rat passive cutaneous anaphylaxis (PCA) model", "format": "in vivo", "conditions": "positive control cromolyn 100 mg/kg IV, p<0.001", "description": "On day 0, male CD-IGS rats (170 – 190g; Charles River Laboratories) were anesthetized with isofluorane, their dorsal region shaved and 50 μl Anti-DNP-IgE (Clone SPE-7, Sigma, St. Louis, MO) that had been diluted 1:1000 in saline was injected via the intradermal route at 3 individual spots along the right side of the back. Saline was injected via the intradermal route at 3 individual spots along the left side of the back as a sham control. Twenty-four hours later, 200 μl of BSA-DNP (Calbiochem, San Diego, CA), prepared (1 mg prepared in a 2% solution of Evans blue dye: Sigma Chemicals, St. Louis, MO) was injected via the IV route via the tail vein. Thirty minutes after the BSA-DNP challenge the experiment was terminated and skin samples from the middle of each injection site taken for Evans blue dye measurement at an OD measurement at 620nm on a plate reader following incubation (2h at 90°C) and homogenization in formamide (Sigma Chemicals, St. Louis, MO). Vehicle (20% Captisol® (Captisol), PO), the positive control (Cromolyn: Sigma Chemicals, St. Louis, MO 100mg/kg, 2mL/kg, IV) or CC0484509 (3 and 10mg/kg, PO) were dosed 1h prior to the IV challenge with BSA-DNP.\nFor the TEL-Syk assay, the intensity values for the 700 and 800 channel were exported as text files in ActivityBase (IDBS, Guildford, UK) to derive the ratios that reflect kinase activity. For LAD2 experiments, enzyme activity values were exported as text files into ActivityBase to calculate “percent release” according to the formula: 100* supernatant OD405/ (supernatant OD405 + (pellet OD405*pellet dilution factor)). For the basophil and B-cells assays, flow cytometry data was exported from the FACS Array and processed using FloJo software package (TreeStar, Inc., Ashland, Oregon). For the JAK2 HEL and Ramos NFAT β-lactamase assays, the fluorescence values obtained at 460 nm and 530 nm were exported into ActivityBase to calculate response ratios. For the neutrophil, macrophage, KDR, and JAK1/3 assays, raw values were exported into ActivityBase to calculate percent inhibition. All IC50 calculations were generated using XLfit (IDBS, Guildford, UK) algorithm 205 within Excel. For PCA, the OD from the saline injected site was subtracted from the OD from the anti-DNP IgE injected site. Evans blue dye extravasation was expressed as mean ± SEM and % inhibition for the test article groups was normalized to the cromolyn positive control. For the CIA model paw measurements (left and right ankle diameter) were taken for each individual animal and averaged. The mean data from each group was plotted and either the AUC(day 11–18) or % inhibition on day 18 was calculated. Data is expressed as mean ± SEM of each group with n = 6–12. […]"}, "[3]": {"design": "method as in PMID 19096013", "conditions": "chronic and refractory ITP; cited from earlier work"}, "[4]": {"tested_on": "proinflammatory analytes in paw tissue", "assay": "inflammatory cytokines measured in the paw, rat CIA", "format": "in vivo", "conditions": "day 18; CC-509 all dose levels p<0.01; indomethacin p<0.05", "description": "Following the last administration of CC-509, paw samples were collected and processed for cytokine and chemokine analysis (Aushon Biosciences, Billerica, MA). Briefly paws were snap-frozen and pulverized in liquid nitrogen followed by addition of cell signal lysis buffer in the presence of protease and phosphatase inhibitors (Sigma Chemicals, St. Louis, MO). Samples were homogenized on high speed for 30 seconds, incubated on ice for 20 minutes then sonicated at high intensity for 1 minute. Samples were spun at high speed and supernatants were collected for cytokine analysis."}, "[5]": {"tested_on": "rat collagen-induced arthritis model", "assay": "rat collagen-induced arthritis (CIA) model, paw swelling", "format": "in vivo", "conditions": "Indomethacin 2 mg/kg oral, p<0.01", "description": "Female Lewis rats (150 – 170g; Charles River Laboratories) were house standard shoebox cages, fed Harlan-Tekald diet and water ad libitum and maintained on a 12h light/dark cycle. For induction of arthritis rats were anesthetized with isofluorane and their entire dorsal area shaved. Rats were injected (intradermal) with 100 μl of equal volumes of collagen (Chrondrex, Redmond, WA) and IFA (Sigma Chemicals, St. Louis, MO) emulsion in 10 sites across the dorsal region. At disease onset 11 days following immunization animals were randomized into groups based on their ankle measurements and test article administration was initiated. Rats were dosed orally with vehicle (20% Captisol®), Indomethacin (Sigma Chemicals, St. Louis, MO, 2mg/kg) or CC-509 (15, 25mg/kg QD or 15mg/kg BID) in a dose volume of 5ml/kg. […] On the last day of the study animals were split into 2 cohorts and bleed twice via tail bleed under isofluorane anesthesia and a third terminal bleed following CO2 asphyxiation to obtain a time course of plasma compound exposure at 30minutes, 1, 2, 4, 8 and 24h after the last dose of CC-509.\nFor the TEL-Syk assay, the intensity values for the 700 and 800 channel were exported as text files in ActivityBase (IDBS, Guildford, UK) to derive the ratios that reflect kinase activity. For LAD2 experiments, enzyme activity values were exported as text files into ActivityBase to calculate “percent release” according to the formula: 100* supernatant OD405/ (supernatant OD405 + (pellet OD405*pellet dilution factor)). For the basophil and B-cells assays, flow cytometry data was exported from the FACS Array and processed using FloJo software package (TreeStar, Inc., Ashland, Oregon). For the JAK2 HEL and Ramos NFAT β-lactamase assays, the fluorescence values obtained at 460 nm and 530 nm were exported into ActivityBase to calculate response ratios. For the neutrophil, macrophage, KDR, and JAK1/3 assays, raw values were exported into ActivityBase to calculate percent inhibition. All IC50 calculations were generated using XLfit (IDBS, Guildford, UK) algorithm 205 within Excel. For PCA, the OD from the saline injected site was subtracted from the OD from the anti-DNP IgE injected site. Evans blue dye extravasation was expressed as mean ± SEM and % inhibition for the test article groups was normalized to the cromolyn positive control. For the CIA model paw measurements (left and right ankle diameter) were taken for each individual animal and averaged. The mean data from each group was plotted and either the AUC(day 11–18) or % inhibition on day 18 was calculated. Data is expressed as mean ± SEM of each group with n = 6–12. Statistical analysis was performed with Prism Graphpad using one-way ANOVA followed by Dunnett’s comparison using the vehicle group as the control or for measurements over time a 2 way ANOVA followed by a Dunnett’s multiple comparison test. Statistical significance was deemed as * = p<0.05, **p<0.01, ***p<0.001 and p<0.0001."}}, "data": [{"smiles": "NCCNc1ncc(C(N)=O)c(Nc2cccc(C(F)(F)F)c2)n1", "note": "[Syk II inhibitor, reference compound]", "values": [{"measurement": "IC50", "setting": "[1]", "result": "2240 ± 290", "unit": "nM"}]}, {"smiles": "O=C(O)c1cc(=O)c2c(OCC(O)COc3cccc4oc(C(=O)O)cc(=O)c34)cccc2o1", "note": "[cromolyn, reference compound]", "values": [{"measurement": "inhibition of skin edema compared to vehicle control group", "setting": "[2]", "result": 79, "unit": "%"}]}, {"smiles": "COc1cc(Nc2ncc(F)c(Nc3ccc4c(n3)N(COP(=O)(O)O)C(=O)C(C)(C)O4)n2)cc(OC)c1OC", "note": "[fostamatinib]", "values": [{"measurement": "patients with durable platelet responses", "setting": "[3]", "result": "8/16"}]}, {"smiles": "COc1ccc2c(c1)c(CC(=O)O)c(C)n2C(=O)c1ccc(Cl)cc1", "note": "[indomethacin, reference compound]", "values": [{"measurement": "MIP-1α in the paw", "setting": "[4]", "result": "significantly inhibited"}, {"measurement": "inhibition of paw swelling", "setting": "[5]", "result": 82, "unit": "%"}]}]}
